How the values were obtained:
Test in all cases: Post-emergence test experiment (greenhouse pot, spray at 2-3 leaf stage)
Assay type in all cases: in vivo
Settings in all cases: 1000 g/ha; post-emergence spray at 2-3 leaf stage; assessed after 3 weeks; fresh weight inhibition rate
Echinochloa crusgalli = tested on: Echinochloa crusgalli
From the text: (§1) The activity level standard of harmful plants destruction (i. e. growth inhibition rate) is as follows: • Level 5: the growth inhibition rate is greater than 85%; • Level 4: the growth inhibition rate is equal to or greater than 60% and less than 85%; • Level 3: the growth inhibition rate is equal to or greater than 40% and less than 60%; • Level 2: the growth inhibition rate is equal to or greater than 20% and less than 40%; • Level 1: the growth inhibition rate is equal to or greater than 5% and less than 20%; • Level 0: the growth inhibition rate is less than 5%;
(§2) The above described growth inhibition rate is fresh weight inhibition rate.
(§3) Post-emergence test experiment: Monocotyledonous and dicotyledonous weed seeds and main crop seeds (i. e. wheat, corn, rice, soybean, cotton, oilseed, millet and sorghum.) were put into a plastic pot loaded with soil. Then covered with 0.5-2 cm soil, the seeds were allowed to grow in good greenhouse environment. The test plants were treated at 2-3 leaf stage 2 weeks after sowing. The test compounds of the invention were dissolved with acetone respectively, then added with tween-80, and using 1.5 liters per hectare of an emulsible concentrate of methyl oleate as a synergist, and diluted by certain amount of water to certain concentration. The solution was sprayed to the plants with a sprayer. Then the plants were cultured for 3 weeks in the greenhouse, and the experiment result of weed controlling effect after 3 weeks was listed in tables 3-4.

Galium spurium = tested on: Galium spurium
From the text: as §1, §2, §3

Abutilon theophrasti = tested on: Abutilon theophrasti
From the text: as §1, §2, §3

Monochoria vaginalis = tested on: Monochoria vaginalis
From the text: as §1, §2, §3

Digitaria sanguinalis = tested on: Digitaria sanguinalis
From the text: as §1, §2, §3

Row | Structure (SMILES) | Activity level (growth inhibition rate) Echinochloa crusgalli (Echinochloa crusgalli) | Activity level (growth inhibition rate) Galium spurium (Galium spurium) | Activity level (growth inhibition rate) Abutilon theophrasti (Abutilon theophrasti) | Activity level (growth inhibition rate) Monochoria Vaginalis (Monochoria vaginalis) | Activity level (growth inhibition rate) Digitaria sanguinalis (Digitaria sanguinalis)
1 | CC(Oc1nc(F)c(Cl)c(N)c1Cl)C(=O)OCc1ccc(C(F)(F)F)cc1 (stereo not drawn) [Compound 210] | 5 (Level 5: the growth inhibition rate is greater than 85%) | 5 (Level 5: the growth inhibition rate is greater than 85%) | 5 (Level 5: the growth inhibition rate is greater than 85%) | 5 (Level 5: the growth inhibition rate is greater than 85%) | 5 (Level 5: the growth inhibition rate is greater than 85%)
2 | CC(Oc1nc(F)c(Cl)c(N)c1Cl)C(=O)OCc1ccc(Br)cc1 (stereo not drawn) [Compound 207] | 5 (Level 5: the growth inhibition rate is greater than 85%) | 5 (Level 5: the growth inhibition rate is greater than 85%) | 5 (Level 5: the growth inhibition rate is greater than 85%) | 5 (Level 5: the growth inhibition rate is greater than 85%) | 5 (Level 5: the growth inhibition rate is greater than 85%)
3 | CC(Oc1nc(F)c(Cl)c(N)c1Cl)C(=O)SCc1ccc(Cl)cc1 (stereo not drawn) [Compound 228] | 5 (Level 5: the growth inhibition rate is greater than 85%) | 5 (Level 5: the growth inhibition rate is greater than 85%) | 5 (Level 5: the growth inhibition rate is greater than 85%) | 5 (Level 5: the growth inhibition rate is greater than 85%) | 5 (Level 5: the growth inhibition rate is greater than 85%)
4 | CC(Oc1nc(F)c(Cl)c(N)c1Cl)C(=O)SCc1ccccc1Cl (stereo not drawn) [Compound 227] | 5 (Level 5: the growth inhibition rate is greater than 85%) | 5 (Level 5: the growth inhibition rate is greater than 85%) | 5 (Level 5: the growth inhibition rate is greater than 85%) | 5 (Level 5: the growth inhibition rate is greater than 85%) | 5 (Level 5: the growth inhibition rate is greater than 85%)
5 | CC(Oc1nc(F)c(Cl)c(N)c1Cl)C(=O)OCc1cc2ccccc2o1 (stereo not drawn) [Compound 173] | 5 (Level 5: the growth inhibition rate is greater than 85%) | 5 (Level 5: the growth inhibition rate is greater than 85%) | 5 (Level 5: the growth inhibition rate is greater than 85%) | 5 (Level 5: the growth inhibition rate is greater than 85%) | 5 (Level 5: the growth inhibition rate is greater than 85%)
6 | CC(Oc1nc(F)c(Cl)c(N)c1Cl)C(=O)OCc1cccc(C(F)(F)F)c1 (stereo not drawn) [Compound 209] | 5 (Level 5: the growth inhibition rate is greater than 85%) | 5 (Level 5: the growth inhibition rate is greater than 85%) | 5 (Level 5: the growth inhibition rate is greater than 85%) | 5 (Level 5: the growth inhibition rate is greater than 85%) | 5 (Level 5: the growth inhibition rate is greater than 85%)
7 | CC(Oc1nc(I)c(Cl)c(N)c1Cl)C(=O)SCc1ccccc1 (stereo not drawn) [Compound 17] | 5 (Level 5: the growth inhibition rate is greater than 85%) | 5 (Level 5: the growth inhibition rate is greater than 85%) | 5 (Level 5: the growth inhibition rate is greater than 85%) | 5 (Level 5: the growth inhibition rate is greater than 85%) | 5 (Level 5: the growth inhibition rate is greater than 85%)
8 | CC(Oc1nc(F)c(Cl)c(NC(=O)c2ccccc2)c1Cl)C(=O)OCc1ccccc1 (stereo not drawn) [Compound 194] | 5 (Level 5: the growth inhibition rate is greater than 85%) | 5 (Level 5: the growth inhibition rate is greater than 85%) | 5 (Level 5: the growth inhibition rate is greater than 85%) | 5 (Level 5: the growth inhibition rate is greater than 85%) | 5 (Level 5: the growth inhibition rate is greater than 85%)
9 | CC(Oc1nc(F)c(Cl)c(N)c1Cl)C(=O)SCCc1cocn1 (stereo not drawn) [Compound 142] | 5 (Level 5: the growth inhibition rate is greater than 85%) | 5 (Level 5: the growth inhibition rate is greater than 85%) | 5 (Level 5: the growth inhibition rate is greater than 85%) | 5 (Level 5: the growth inhibition rate is greater than 85%) | 5 (Level 5: the growth inhibition rate is greater than 85%)
10 | CCC(Oc1nc(F)c(Cl)c(N)c1Cl)C(=O)OCc1ccccc1 (stereo not drawn) [Compound 25] | – | 5 (Level 5: the growth inhibition rate is greater than 85%) | 5 (Level 5: the growth inhibition rate is greater than 85%) | 5 (Level 5: the growth inhibition rate is greater than 85%) | –
11 | Nc1c(Cl)c(F)nc(OC(CC(F)(F)F)C(=O)SCc2ccccc2)c1Cl (stereo not drawn) [Compound 42] | – | 5 (Level 5: the growth inhibition rate is greater than 85%) | 5 (Level 5: the growth inhibition rate is greater than 85%) | 5 (Level 5: the growth inhibition rate is greater than 85%) | –
12 | Nc1c(Cl)c(F)nc(OC(CCl)C(=O)OCc2ccccc2)c1Cl (stereo not drawn) [Compound 37] | – | 5 (Level 5: the growth inhibition rate is greater than 85%) | 5 (Level 5: the growth inhibition rate is greater than 85%) | 5 (Level 5: the growth inhibition rate is greater than 85%) | –
13 | Nc1c(Cl)c(F)nc(OC(CF)C(=O)SCc2ccccc2)c1Cl (stereo not drawn) [Compound 38] | – | 5 (Level 5: the growth inhibition rate is greater than 85%) | 5 (Level 5: the growth inhibition rate is greater than 85%) | 5 (Level 5: the growth inhibition rate is greater than 85%) | –
14 | COc1ccc(C(Oc2nc(F)c(Cl)c(N)c2Cl)C(=O)OCc2ccccc2)c(C)c1 (stereo not drawn) [Compound 63] | – | 5 (Level 5: the growth inhibition rate is greater than 85%) | 5 (Level 5: the growth inhibition rate is greater than 85%) | 5 (Level 5: the growth inhibition rate is greater than 85%) | –
15 | Nc1c(Cl)c(F)nc(OC(C(=O)OCc2ccccc2)c2ccc3ccccc3c2)c1Cl (stereo not drawn) [Compound 66] | – | 5 (Level 5: the growth inhibition rate is greater than 85%) | 5 (Level 5: the growth inhibition rate is greater than 85%) | 5 (Level 5: the growth inhibition rate is greater than 85%) | –
16 | Nc1c(Cl)c(F)nc(OC(C(=O)OCc2ccccc2)c2cscn2)c1Cl (stereo not drawn) [Compound 56] | – | 5 (Level 5: the growth inhibition rate is greater than 85%) | 5 (Level 5: the growth inhibition rate is greater than 85%) | 5 (Level 5: the growth inhibition rate is greater than 85%) | –
17 | Nc1c(Cl)c(F)nc(OC(Cl)C(=O)OCc2ccccc2)c1Cl (stereo not drawn) [Compound 35] | – | 5 (Level 5: the growth inhibition rate is greater than 85%) | 5 (Level 5: the growth inhibition rate is greater than 85%) | 5 (Level 5: the growth inhibition rate is greater than 85%) | –
18 | Nc1c(Cl)c(F)nc(OC(C(=O)OCc2ccccc2)C(F)F)c1Cl (stereo not drawn) [Compound 39] | – | 5 (Level 5: the growth inhibition rate is greater than 85%) | 5 (Level 5: the growth inhibition rate is greater than 85%) | 5 (Level 5: the growth inhibition rate is greater than 85%) | –
19 | COCC(Oc1nc(F)c(Cl)c(N)c1Cl)C(=O)OCc1ccccc1 (stereo not drawn) [Compound 29] | – | 5 (Level 5: the growth inhibition rate is greater than 85%) | 5 (Level 5: the growth inhibition rate is greater than 85%) | 5 (Level 5: the growth inhibition rate is greater than 85%) | –
